Assay results: patent publication US20190161451A1, “HERBICIDAL PYRIMIDINE COMPOUNDS” (BASF SE, priority 2016, published 2019)

Legend:
SETVI = assay: greenhouse experiment, post-emergence treatment; format: in vivo, Setaria viridis; settings: post-emergence method, scale from 0 to 100
Text: (§1) The culture containers used were plastic flowerpots containing loamy sand with approximately 3.0% of humus as the substrate. The seeds of the test plants were sown separately for each species.
(§2) For the post-emergence treatment, the test plants were first grown to a height of 3 to 15 cm, depending on the plant habit, and only then treated with the active ingredients which had been suspended or emulsified in water. For this purpose, the test plants were either sown directly and grown in the same containers, or they were first grown separately as seedlings and transplanted into the test containers a few days prior to treatment.
(§3) Depending on the species, the plants were kept at 10-25° C. or 20-35° C., respectively.
(§4) The test period extended over 2 to 4 weeks. During this time, the plants were tended, and their response to the individual treatments was evaluated.
(§5) Evaluation was carried out using a scale from 0 to 100. 100 means no emergence of the plants, or complete destruction of at least the aerial moieties, and 0 means no damage, or normal course of growth. A good herbicidal activity is given at values of at least 70 and a very good herbicidal activity is given at values of at least 85.
(§6) The plants used in the greenhouse experiments were of the following species: […]

ECHCG [1] = assay: greenhouse experiment, pre-emergence treatment; format: in vivo, Echinocloa crus-galli; settings: pre-emergence method, scale from 0 to 100
Text: as §1
(§7) For the pre-emergence treatment, the active ingredients, which had been suspended or emulsified in water, were applied directly after sowing by means of finely distributing nozzles.
(§8) The containers were irrigated gently to promote germination and growth and subsequently covered with transparent plastic hoods until the plants had rooted. This cover caused uniform germination of the test plants, unless this had been impaired by the active ingredients.
as §3, §4, §5, §6

ALOMY = assay: greenhouse experiment, post-emergence treatment; format: in vivo, Alopecurus myosuroides; settings: post-emergence method, scale from 0 to 100
Text: as §1, §2, §3, §4, §5, §6

AMARE = assay: greenhouse experiment, post-emergence treatment; format: in vivo, Amaranthus retroflexus; settings: post-emergence method, scale from 0 to 100
Text: as §1, §2, §3, §4, §5, §6

APESV = assay: greenhouse experiment, pre-emergence treatment; format: in vivo, Apera spica-venti; settings: pre-emergence method, scale from 0 to 100
Text: as §1, §7, §8, §3, §4, §5, §6

ECHCG [2] = assay: greenhouse experiment, post-emergence treatment; format: in vivo, Echinocloa crus-galli; settings: post-emergence method, scale from 0 to 100
Text: as §1, §2, §3, §4, §5, §6

ABUTH = assay: greenhouse experiment, post-emergence treatment; format: in vivo, Abutilon theophrasti; settings: post-emergence method, application rate 1000 g/ha, scale from 0 to 100
Text: as §1, §2, §3, §4, §5, §6

Compound | herbicidal activity against ALOMY (ALOMY; application rate 1000 g/ha) | herbicidal activity against ECHCG (ECHCG [1]; application rate 1000 g/ha) | herbicidal activity against ECHCG (ECHCG [2]; application rate 1000 g/ha) | other results
COC(=O)c1nc(C2CC2)ncc1-c1c(Cl)sc2ccccc12 [example 17, Methyl 5-(2-chlorobenzothiophen-3-yl)-2-cyclopropyl-pyrimidine-4-carboxylate] |  |  |  | herbicidal activity against SETVI (SETVI; application rate 2000 g/ha): very good (a very good herbicidal activity is given at values of at least 85)
COC(=O)c1nc(C2CC2)ncc1-c1csc2ccccc12 [example 12, Methyl 5-(benzothiophen-3-yl)-2-cyclopropyl-pyrimidine-4-carboxylate] |  |  |  | herbicidal activity against ECHCG (ECHCG [1]; application rate 2000 g/ha): very good (a very good herbicidal activity is given at values of at least 85)
COC(=O)c1nc(C2CC2)ncc1-c1c(Cl)ccc2c1OCO2 [example 11] | very good (a very good herbicidal activity is given at values of at least 85) | very good (a very good herbicidal activity is given at values of at least 85) |  | herbicidal activity against AMARE (AMARE; application rate 1000 g/ha): good (A good herbicidal activity is given at values of at least 70)
COC(=O)c1nc(C2CC2)ncc1-c1coc2ccccc12 [example 15] |  | very good (a very good herbicidal activity is given at values of at least 85) |  | herbicidal activity against SETVI (SETVI; application rate 1000 g/ha): very good (a very good herbicidal activity is given at values of at least 85)
O=C(O)c1nc(C2CC2)ncc1-c1coc2ccccc12 [example 16] |  |  |  | herbicidal activity against APESV (APESV; application rate 2000 g/ha): very good (a very good herbicidal activity is given at values of at least 85); herbicidal activity against ECHCG (ECHCG [2]; application rate 2000 g/ha): good (A good herbicidal activity is given at values of at least 70); herbicidal activity against ECHCG (ECHCG [1]; application rate 2000 g/ha): very good (a very good herbicidal activity is given at values of at least 85)
O=C(O)c1nc(C2CC2)ncc1-c1cccc2c1OCCO2 [example 31] |  | very good (a very good herbicidal activity is given at values of at least 85) | very good (a very good herbicidal activity is given at values of at least 85) | herbicidal activity against APESV (APESV; application rate 1000 g/ha): very good (a very good herbicidal activity is given at values of at least 85); herbicidal activity against AMARE (AMARE; application rate 1000 g/ha): very good (a very good herbicidal activity is given at values of at least 85)
O=C(O)c1nc(C2CC2)ncc1-c1cc2c(cc1Cl)OCO2 [example 10] | very good (a very good herbicidal activity is given at values of at least 85) | very good (a very good herbicidal activity is given at values of at least 85) | good (A good herbicidal activity is given at values of at least 70) | herbicidal activity against APESV (APESV; application rate 1000 g/ha): very good (a very good herbicidal activity is given at values of at least 85)
O=C(O)c1nc(C2CC2)ncc1-c1cc2c(cc1I)OCO2 [example 29] |  |  |  | herbicidal activity against AMARE (AMARE; application rate 1000 g/ha): very good (a very good herbicidal activity is given at values of at least 85)
O=C(O)c1nc(C2CC2)ncc1-c1cc2c(cc1Br)OCO2 [example 25] | good (A good herbicidal activity is given at values of at least 70) | very good (a very good herbicidal activity is given at values of at least 85) | good (A good herbicidal activity is given at values of at least 70) | herbicidal activity against APESV (APESV; application rate 1000 g/ha): very good (a very good herbicidal activity is given at values of at least 85); herbicidal activity against ABUTH (ABUTH): good (A good herbicidal activity is given at values of at least 70)
O=C(O)c1nc(C2CC2)ncc1-c1c(Cl)cc2c(c1F)OCO2 [example 33] | good (A good herbicidal activity is given at values of at least 70) | very good (a very good herbicidal activity is given at values of at least 85) | very good (a very good herbicidal activity is given at values of at least 85) | herbicidal activity against APESV (APESV; application rate 1000 g/ha): very good (a very good herbicidal activity is given at values of at least 85)
COC(=O)c1nc(C2CC2)ncc1-c1c(Cl)cc2c(c1F)OCO2 [example 32] | good (A good herbicidal activity is given at values of at least 70) | very good (a very good herbicidal activity is given at values of at least 85) | good (A good herbicidal activity is given at values of at least 70) | 
O=C(O)c1nc(C2CC2)ncc1-c1cccc2c1OC(F)(F)O2 [example 2, 2-Cyclopropyl-5-(2,2-difluoro-1,3-benzodioxol-4-yl)pyrimidine-4-carboxylic Acid] | very good (a very good herbicidal activity is given at values of at least 85) | very good (a very good herbicidal activity is given at values of at least 85) |  | herbicidal activity against APESV (APESV; application rate 1000 g/ha): very good (a very good herbicidal activity is given at values of at least 85); herbicidal activity against AMARE (AMARE; application rate 1000 g/ha): very good (a very good herbicidal activity is given at values of at least 85)
COC(=O)c1nc(C2CC2)ncc1-c1cccc2c1OCCO2 [example 30] |  |  |  | herbicidal activity against AMARE (AMARE; application rate 1000 g/ha): very good (a very good herbicidal activity is given at values of at least 85)
COC(=O)c1nc(C2CC2)ncc1-c1cc2c(cc1Br)OCO2 [example 24] | very good (a very good herbicidal activity is given at values of at least 85) |  | very good (a very good herbicidal activity is given at values of at least 85) | 
COC(=O)c1nc(C2CC2)ncc1-c1c(Cl)cc2c(c1OC)OCO2 [example 35] |  |  |  | herbicidal activity against ABUTH (ABUTH): very good (a very good herbicidal activity is given at values of at least 85)
COC(=O)c1nc(C2CC2)ncc1-c1c(Cl)oc2ccccc12 [example 19] |  |  |  | herbicidal activity against ALOMY (ALOMY; application rate 2000 g/ha): good (A good herbicidal activity is given at values of at least 70)
COC(=O)c1nc(C2CC2)ncc1-c1cc2c(cc1Cl)OCO2 [example 9] |  |  | very good (a very good herbicidal activity is given at values of at least 85) | 
O=C(O)c1nc(C2CC2)ncc1-c1csc2ccccc12 [example 13] |  |  |  | herbicidal activity against ALOMY (ALOMY; application rate 2000 g/ha): good (A good herbicidal activity is given at values of at least 70); herbicidal activity against AMARE (AMARE; application rate 2000 g/ha): very good (a very good herbicidal activity is given at values of at least 85); herbicidal activity against ECHCG (ECHCG [2]; application rate 2000 g/ha): good (A good herbicidal activity is given at values of at least 70); herbicidal activity against ECHCG (ECHCG [1]; application rate 2000 g/ha): very good (a very good herbicidal activity is given at values of at least 85)
COC(=O)c1nc(C2CC2)ncc1-c1cc2c(cc1I)OCO2 [example 28] | good (A good herbicidal activity is given at values of at least 70) | very good (a very good herbicidal activity is given at values of at least 85) | good (A good herbicidal activity is given at values of at least 70) | 
COC(=O)c1nc(C2CC2)ncc1-c1c(Cl)sc2ccccc12 [example 4] | very good (a very good herbicidal activity is given at values of at least 85) | good (A good herbicidal activity is given at values of at least 70) |  | 
O=C(O)c1nc(C2CC2)ncc1-c1cccc2c1OCC2 [example 5] |  | good (A good herbicidal activity is given at values of at least 70) | good (A good herbicidal activity is given at values of at least 70) | 
O=C(O)c1nc(C2CC2)ncc1-c1c(Cl)oc2ccccc12 [example 20] |  |  |  | herbicidal activity against APESV (APESV; application rate 2000 g/ha): very good (a very good herbicidal activity is given at values of at least 85)
COc1c2c(cc(Cl)c1-c1cnc(C3CC3)nc1C(=O)O)OCO2 [example 36] | very good (a very good herbicidal activity is given at values of at least 85) |  | very good (a very good herbicidal activity is given at values of at least 85) | herbicidal activity against APESV (APESV; application rate 1000 g/ha): very good (a very good herbicidal activity is given at values of at least 85)
